Columns and labels:
[1] = molecular target: T1, tyramine receptor (TyrR) (Drosophila melanogaster, UniProt P22270); assay: Inhibition binding of 3H-tyramine to membranes of Schneider cells expressing tyramine receptor; conditions: compared with tyramine
T1 construct: oligonucleotides that are used to amplify the open reading frame of the Drosophila tyramine receptor (TyrR); expressed in transfected cells
T1 sequence (P22270 27-601): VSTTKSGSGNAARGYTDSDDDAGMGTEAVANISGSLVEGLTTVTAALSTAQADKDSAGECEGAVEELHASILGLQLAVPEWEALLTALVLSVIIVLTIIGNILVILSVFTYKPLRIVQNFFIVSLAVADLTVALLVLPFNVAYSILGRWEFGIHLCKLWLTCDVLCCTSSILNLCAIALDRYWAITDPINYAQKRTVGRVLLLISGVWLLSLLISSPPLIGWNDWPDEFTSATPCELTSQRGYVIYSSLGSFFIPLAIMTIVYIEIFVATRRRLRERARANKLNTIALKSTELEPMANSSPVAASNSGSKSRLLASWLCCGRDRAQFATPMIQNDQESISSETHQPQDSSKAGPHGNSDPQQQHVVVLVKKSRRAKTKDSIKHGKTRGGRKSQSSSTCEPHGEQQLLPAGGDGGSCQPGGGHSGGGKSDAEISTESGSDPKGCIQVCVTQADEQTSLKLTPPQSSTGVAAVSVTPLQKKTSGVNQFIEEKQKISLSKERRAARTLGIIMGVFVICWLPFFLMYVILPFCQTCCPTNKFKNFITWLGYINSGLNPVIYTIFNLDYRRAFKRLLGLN
Description: To study the kinetics of the tyramine receptor in stably transfected cells with pAcB-TyrR, crude membrane fractions are prepared from the transfected cells and used to calculate the equilibrium dissociation constant (Kd), Maximum Binding Capacity (Bmax), equilibrium inhibitor dissociation constant (Ki) and EC50 (effective concentration at which binding is inhibited by 50%). A preliminary study to determine the optimum concentration of membrane protein for receptor binding activity is performed. In this study, different concentrations of protein (about 10-50 μg/reaction) are incubated in about 1 ml binding buffer (50 mM Tris, pH 7.4, 5 mM MgCl2 and 2 mM ascorbic acid). The reaction is initiated by the addition of about 5 nM ^3H-tyramine with and without about […] unlabeled tyramine. After about 1 hr incubation at room temperature, reactions are terminated by filtration through GF/C filters (VWR), which have been previously soaked in about 0.3% polyethyleneimine (PEI). The filters are washed one time with about 4 ml ice cold Tris buffer and air dried before the retained radioactivity is measured using LSC. Binding data is analyzed by curve fitting (GraphPad software, Prism). […] Therefore, about 10 μg protein/reaction is used.
(§1) To determine the affinities of several ligands for TyrR, increasing concentration of several compounds are tested for their ability to inhibit binding of about 2 nM ^3H-tyramine. For both saturation and inhibition assays total and non-specific binding is determined in the absence and presence of about 10 μM unlabeled-tyramine, respectively. Receptor binding reactions are incubated for about 1 hour at room temperature (RT) in restricted light. Reactions are terminated by filtration through GF/C filters (VWR), which have been previously soaked in about 0.3% polyethyleneimine (PEI). The filters are washed one time with about 4 ml ice cold Tris buffer and air dried before retained radioactivity is measured using LSC. Binding data is analyzed by curve fitting (GraphPad software, Prism).

[2] = molecular target: T1, tyramine receptor (TyrR); assay: Saturation binding of 3H-tyramine to membranes of Schneider cells expressing tyramine receptor; conditions: membranes of cells stably transfected with pAcB-TyrR
Description: To study the kinetics of the tyramine receptor in stably transfected cells with pAcB-TyrR, crude membrane fractions are prepared from the transfected cells and used to calculate the equilibrium dissociation constant (Kd), Maximum Binding Capacity (Bmax), equilibrium inhibitor dissociation constant (Ki) and EC50 (effective concentration at which binding is inhibited by 50%). A preliminary study to determine the optimum concentration of membrane protein for receptor binding activity is performed. In this study, different concentrations of protein (about 10-50 μg/reaction) are incubated in about 1 ml binding buffer (50 mM Tris, pH 7.4, 5 mM MgCl2 and 2 mM ascorbic acid). The reaction is initiated by the addition of about 5 nM ^3H-tyramine with and without about […] unlabeled tyramine. After about 1 hr incubation at room temperature, reactions are terminated by filtration through GF/C filters (VWR), which have been previously soaked in about 0.3% polyethyleneimine (PEI). The filters are washed one time with about 4 ml ice cold Tris buffer and air dried before the retained radioactivity is measured using LSC. […]
To determine Bmax and Kd values for tyramine receptor (TyrR) in membranes expressing TyrR, saturation binding experiments are performed. […] Binding data is analyzed by curve fitting (GraphPad software, Prism) and the Kd for tyramine binding to its receptor is determined. […]

[3] = molecular target: T2, tyramine receptor (Drosophila melanogaster, UniProt P22270); assay: Whole cell 3H-tyramine binding in Schneider cells transfected with tyramine receptor
T2 construct: oligonucleotides that are used to amplify the open reading frame of the Drosophila tyramine receptor (TyrR); expressed in transfected cells
T2 sequence (P22270 27-601): T1 sequence (P22270 27-601)
Description: Cells transfected with the tyramine receptor (about 1×10^6 cells/ml) are cultured in each well of a multi-well plate. About 24 hours after plating the cells, the medium is withdrawn and replaced with about 1 ml insect saline (about 23 C). Different concentrations of ^3H-tyramine (about 0.1-10 nM) are added with and without about 10 μM unlabeled tyramine and incubated at room temperature (RT). After about a 20 minute incubation, the reaction is stopped by rapid aspiration of the saline and at least one wash with about 2 ml insect saline (about 23 C). Cells are solubilized in about 300 μl 0.3M NaOH for about 20 min at RT. Solubilized cells are transferred into about 4 ml Liquid Scintillation Solution (LSS) and vigorously vortexed for about 30 sec before counting the radioactivity using a Liquid Scintillation P-counter (Beckman, Model LS1801) (LSC).
Receptor specific binding data is expressed as fmol specific binding per 1×10^6 cells and measured as a function of ^3H-tyramine concentration. Specific binding values are calculated as the difference between values in the absence of and values in the presence of about 10 μM unlabeled tyramine. The maximum specific binding occurs at about 5 nM ^3H-tyramine.

[4] = molecular target: Aedes aegypti; assay: Pesticidal effect (KD) against Aedes aegypti; format: in vivo
Description: With reference to FIG. 4A, the pesticidal effect against Aedes aegypti was determined for Blend 23 (labeled “HL1”) and the composition including CL and Blend 23.
Similarly, with reference to FIG. 4B, the pesticidal effect against Aedes aegypti was determined for Blend 23 (labeled “HL1”) and the composition including CL and Blend 23.
Similarly, with reference to FIG. 4C, the pesticidal effect against Aedes aegypti was determined for Blend 23 (labeled “HL1”) and the composition including Imidacloprid and Blend 23.

[5] = system: Periplaneta americana; assay: Pesticidal effect (mortality) against Periplaneta americana; format: in vivo; conditions: Blend 23 5%
Description: With reference to FIG. 6A, the pesticidal effect against Periplaneta americana was determined for Blend 23 (labeled “HL1”) and the composition including CL and Blend 23.
With reference to FIG. 6B, the pesticidal effect against Periplaneta americana was determined for Blend 23 (labeled “HL1”) and the composition including Imidacloprid and Blend 23.

[6] = molecular target: T3, TyrR (Drosophila melanogaster, UniProt P22270); assay: TyrR competition binding assay (% binding inhibition)
T3 sequence (P22270 27-601): T1 sequence (P22270 27-601)
Description: When the chemical(s) and compound(s) are combined to provide the compositions of the present invention, there is a synergistic effect.
as §1

[7] = system: Culex quinquefasciatus; assay: Repellency effect against Culex quinquefasciatus (biting counts on volunteers' legs); format: in vivo
Description: The repellency of exemplary compositions of the present invention are compared to the repellency of their individual ingredients, and to a non-treated control. Southern house mosquitoes, Culex quinquefasciatus, are obtained as test organisms. Multiple human evaluators test each treatment in a replicated experiment. Experimentation is conducted in a laboratory using multiple-chambered, plexiglass modules, each chamber stocked with about 2-10 day-old colony-reared female mosquitoes. The modules are equipped with sliding doors to expose the mosquitoes to the legs of three volunteers. Treatments are applied at about 28.6 μl to 12 cm^2 rectangular sections of skin located directly beneath the chamber openings. Each volunteer conducts 2-minute biting counts for each treatment at five time intervals: 0, 1, 2, 4 & 6 hours post-treatment. New mosquitoes are stocked into the chamber for each time interval. Ambient temperature and humidity data is recorded with a HOBO datalogger. Percent repellency is determined according to the following formula: Control−Treatment/Control X 100.

[8] = system: aphids (on cotton); assay: Interim field plot ratings, South Georgia: aphids on cotton; format: in vivo; conditions: rate not given; 1 wk after treatment
[9] = system: Thrips (on cotton); assay: Interim field plot ratings, South Georgia: thrips on cotton; format: in vivo; conditions: rate not given; 1 wk after treatment
[10] = system: Drosophila sp.; assay: Pesticidal effect (KD) against Drosophila sp.; format: in vivo; conditions: FIG. 4D; Imidacloprid 50 ppm; Blend 23 2.5%; combination of both
Description: Similarly, with reference to FIG. 4D, the pesticidal effect against Drosophila sp. was determined for Blend 23 (labeled “HL1”) and the composition including Imidacloprid and Blend 23.

[11] = system: Whitefly (on zucchini); assay: Interim field plot ratings, South Georgia: whitefly on zucchini; format: in vivo; conditions: rate not given; 1 wk after treatment
[12] = Interim field plot ratings, South Georgia: flower damage rating; format: in vivo; conditions: rate not given; 1 wk after treatment
[13] = system: Blattella germanica (German cockroaches); assay: Pesticidal effect against German cockroaches (KD and 100% kill time); format: in vivo
Description: With reference to Table 15, the pesticidal effect against Blattella germanica (German cockroaches) was determined for DM, Blend 12, and the composition including DM and Blend 12.
A synergistic effect was shown for the combination treatment that results in an average KD of the insects in 5 sec, and 100% killing of the insects in 17 seconds.

SMILES: NCC(O)c1ccc(O)cc1 (stereo not shown) [Octopamine]
- efficiency at displacing 3H-tyramine binding [1]: less efficient than tyramine

SMILES: NCCc1ccc(O)cc1 [Blend 3H-tyramine, ^3H-tyramine]
- Bmax [2]: about 0.679 μmol/mg protein
- Kd [2]: ~1.26 nM
- concentration at which maximum specific binding occurs ([3]; whole transfected cells): about 5 nM

SMILES: CN/C(=N\[N+](=O)[O-])NCc1cnc(Cl)s1 [CL, clothianidin]
- KD of target insect ([4]; FIG. 4A, CL alone 500 ppm, CL 167 ppm combined with 2.5% Blend 23): no KD
- KD of target insect ([4]; FIG. 4B, CL alone 250 ppm, CL 167 ppm combined with 2.5% Blend 23): no KD
- mortality 30 minutes post-treatment ([5]; FIG. 6A, CL 0.05%, combination of both): no mortality

SMILES: NCCc1ccc(O)cc1 [Tyramine (TA), Tyramine]
- % TyrR Binding Inhibition [6]: 75%
- response of untransfected cells ([3]; concentrations as high as about 100 μM): do not respond

SMILES: CCN(CC)C(=O)c1cccc(C)c1 [DEET, N,N-DIETHYL-3-METHYLBENZAMIDE]
- Percent repellency, 0 ([7]; 0 hours post-treatment): 40%
- Percent repellency, 1 Hour ([7]; 1 hour post-treatment): 20%
- Percent repellency, 2 Hours ([7]; 2 hours post-treatment): 10%
- Percent repellency, 4 Hours ([7]; 4 hours post-treatment): 5%
- Percent repellency, 6 Hours ([7]; 6 hours post-treatment): 0%
- Activity Ratio (repellency at 1 hour) ([7]; effect of composition (5% DEET and 95% Blend 9) divided by effect of comparison composition): (1.00)/(0.20) = 5.0
- Synergy Coefficient (repellency at 1 hour) ([7]; of composition (5% DEET and 95% Blend 9) relative to comparison composition): 100

SMILES: O=[N+]([O-])NC1=NCCN1Cc1ccc(Cl)nc1 [Imidacloprid, 1-[(6-Chloro-3-pyridinyl)methyl]-N-nitro-2-imidazolidinimine]
- KD of target insect at 30 seconds post-treatment ([4]; FIG. 4C, Imidacloprid 250 ppm, Blend 23 2.5%, combination of both): 20%
- KD of target insect ([4]; FIG. 5, Imidacloprid 500 ppm, B5028 5%, combination of both): no KD
- aphids (on cotton) Adults, insect count [8]: 0.3
- aphids (on cotton) Nymph, insect count [8]: 1.6
- Thrips (on cotton), insect count [9]: 9
- KD of target insect at 30 seconds post-treatment [10]: 0%
- mortality 30 minutes post-treatment ([5]; FIG. 6B, Imidacloprid alone 0.05%, 0.033%, 0.01%, Imidacloprid 0.033% combined with 5% Blend 23): no mortality
- Whitefly (on zucchini) Adult, insect count [11]: 16
- Whitefly (on zucchini) Nymph, insect count [11]: 5
- Flower damage (1-5 rating scale; 1 = no damage) [12]: 2.0

SMILES: CC1(C)[C@H](C(=O)O[C@H](C#N)c2cccc(Oc3ccccc3)c2)[C@@H]1C=C(Br)Br [DM, deltamethrin]
- aphids (on cotton) Adults, insect count [8]: 15
- aphids (on cotton) Nymph, insect count [8]: 26
- Thrips (on cotton), insect count [9]: 13
- % TyrR Binding Inhibition [6]: 10%
- 100% Kill (time) ([13]; Example 4, DM 0.037 mg/cm^2, Blend 12 1.9 mg/cm^2): 15 min
- 100% Kill (time) ([13]; Table 16, DM 0.037 mg/cm^2): 12 min
- Whitefly (on zucchini) Adult, insect count [11]: 18
- Whitefly (on zucchini) Nymph, insect count [11]: 142
- Flower damage (1-5 rating scale; 1 = no damage) [12]: 2.2

SMILES: NCCc1ccc(O)c(O)c1 [dopamine, Dopamine]
- efficiency at displacing 3H-tyramine binding [1]: less efficient than tyramine

SMILES: NCCc1c[nH]c2ccc(O)cc12 [serotonin, Serotonin]
- efficiency at displacing 3H-tyramine binding [1]: less efficient than tyramine

From patent US20090099135A1, “Pest control compositions and methods” (priority 2007, published 2009)
